Measurements published in paper PMC8344021, “Discovery of Small Molecule Bak Activator for Lung Cancer Therapy” (Theranostics, 2021).

Key:
[1] = tested on: MDA-MB-231, MCF7, HCT-116, Ramos, OPM-1, PANC-1 and U2OS cell lines; experiment: Apoptotic cell death in other types of cancer cell lines; type: cell-based, human; conditions: 1μM, 72h
Procedure: Figure S2. BKA-073 induces mitochondrial priming and apoptosis in various type of cancers. (A) Expression levels of Bak were analyzed by Western blot in various type of cancer cell lines. (B-C) Various type of cancer cell lines were treated with BKA -073 (1µM) for 16h or 72h, followed by analysis of dynamic BH3 profiling (B) or apoptotic cell death (C), respectively.
Data represent the mean ± SD, n = 3 per group. ***P < 0.001, by 2-tailed t test.
(1 picture or pasted object on this page, not shown here)
Supplemental Materials and Methods
Small molecule NSC14073 (BKA-073) was obtained from the Drug Synthesis and Chemistry Branch, Developmental Therapeutic Program, Division of Cancer Treatment and Diagnosis, National Cancer Institute (NCI, Bethesda, MD) (http://dtp.nci.nih.gov/RequestCompounds).
Venetoclax (ABT-199, 205807) was purchased from MedKoo Biosciences (Morrisville, NC). […]
Cells were seeded at a density of 5 × 103 per well in 96-well plates and allowed to grow overnight. After treatment with BKA-073, the surviving cell fraction was determined using the sulforhodamine B (SRB) assay as described. Optical density (OD) was measured at 510nm in a microplate reader (Synergy H1, BioTek®, Winooski, VT). […]
Apoptotic cells were detected using Annexin-V Apoptosis Detection Kit (556547, BD Biosciences, San Jose, CA) according to the manufacturer’s instructions. […]

[2] = tested on: H1299, H460 and A549 cells; experiment: Sulforhodamine B (SRB) cytotoxicity screening; type: cell-based, human; conditions: SRB assay
Source text: The BH3 death domain is known to be required for the proapoptotic function of Bak. We chose the BH3 domain binding pocket (aa75-88) of Bak (PDB ID: 2YV6) as a docking site for screening of small molecules using the UCSF DOCK 6.1 program suite and the NCI chemical library (300,000 small molecule) database as we recently described, [20], [29], [34]. Small molecules were ranked according to their energy scores. The top 500 compounds determined to have the highest affinity for the BH3 domain were obtained from the NCI and tested for cytotoxicity in human lung cancer cells (i.e. H1299, H460 and A549 cells) by sulforhodamine B (SRB) assay for further screening as described, [36]. […] We named this lead compound Bak activator BKA-073 (C19H24ClN3O2, MW: 361.87) (Figure 1A). To test the effect of BKA-073 on mitochondrial priming (∆% priming) and apoptotic cell death, human lung cancer A549 cells were treated with increasing concentrations (0, 0.25, 0.5, 0.75, 1.0 µM) of BKA-073, followed by analysis of dynamic BH3 profiling (DBP) at 16h and apoptotic cell death at 72h as described, [37]. […] In addition to lung cancer cell lines, we evaluated the efficacy of BKA-073 in other types of cancer cell lines, including breast cancer (MDA-MB-231 and MCF7), colon cancer (HCT-116), lymphoma (Ramos), multiple myeloma (OPM-1), pancreatic cancer (PANC-1) and osteosarcoma (U2OS) cell lines. […]

Structure (SMILES): COc1ccc2nc3ccccc3c(NCCNCC(C)O)c2c1 (centres unmarked) [BKA-073]
- induction of apoptotic cell death [1]: potently induced
- cytotoxicity among top 500 docking hits [2]: most potent activity
